# PubChem BioAssay (NCI)
#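 Five concentrations, 48 hours, 96-well plates. Here, GI50 denotes the concentration required for 50% inhibition of growth. TGI denotes the concentration required for complete inhibition of growth.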
# Columns and labels:
# Experiment in all cases: inhibition of tumour cell growth, NCI panel, 48 h
# SW-620 colon = system: SW-620 colon
# SN12C renal = system: SN12C renal
# A498 renal = system: A498 renal
# OVCAR-3 ovarian = system: OVCAR-3 ovarian
# MOLT-4 leukemia = system: MOLT-4 leukemia
# OVCAR-5 ovarian = system: OVCAR-5 ovarian
# SNB-19 CNS = system: SNB-19 CNS
# SR leukemia = system: SR leukemia
# SK-OV-3 ovarian = system: SK-OV-3 ovarian
# MDA-MB-231 breast = system: MDA-MB-231 breast
Structure (SMILES),TGI (SW-620 colon) [µM],TGI (SN12C renal) [µM],TGI (A498 renal) [µM],TGI (OVCAR-3 ovarian) [µM],TGI (MOLT-4 leukemia) [µM],TGI (OVCAR-5 ovarian) [µM],TGI (SNB-19 CNS) [µM],TGI (SR leukemia) [µM],TGI (SK-OV-3 ovarian) [µM],GI50 (SW-620 colon) [µM],GI50 (SN12C renal) [µM],GI50 (SR leukemia) [µM],GI50 (SK-OV-3 ovarian) [µM],GI50 (OVCAR-3 ovarian) [µM],GI50 (MOLT-4 leukemia) [µM],GI50 (MDA-MB-231 breast) [µM],TGI (MDA-MB-231 breast) [µM],GI50 (OVCAR-5 ovarian) [µM],GI50 (SNB-19 CNS) [µM],GI50 (A498 renal) [µM]
Cn1c(=O)c2/c(n(C)c1=O)=N\C=c1\c(=O)n(C)c(=O)n(C)\c1=N\C=2,> 100,> 100,> 100,> 100,> 100,> 100,> 100,,,,,,,,,,,,,
Cc1cccc2c(O)cc(=O)oc12,> 100,> 100,> 100,> 100,> 100,> 100,> 100,> 100,> 100,,,,,,,,,,,
C[C@@H](Nc1nc(Nc2ccc(F)c(Cl)c2)nc2ccccc12)C1CC1,13.9,14.4,,12.7,5.38,16,22.1,5.26,17.3,3.14,3.25,1.63,5.36,3.21,1.73,2.46,7.61,3.73,4.44,
O=[N+]([O-])c1ccc(C=NC23CC4CC(CC(C4)C2)C3)cc1,,> 100,> 100,> 100,> 100,> 100,> 100,,> 100,,,,,,,,,,,
CN1C/C(=C\C=C\c2ccccc2)C(=O)/C(=C/C=C/c2ccccc2)C1,> 100,> 100,> 100,> 100,> 100,> 100,> 100,,> 100,,,,,,,,,,,
O=S1Nc2c(Cl)cc(Cl)c(Cl)c2S1 (stereo not given),21.1,> 100,> 100,> 100,> 100,> 100,> 100,> 100,> 100,,,,,,,,,,,
CCc1cccc(C)c1NC(=O)CC1C(=O)Nc2ccccc2S1(=O)=O (stereo not given),29.3,63.6,58.3,33.5,36,56.4,75.5,23.8,,,,,,,,,,,,
O=c1oc2ccccc2c(O)c1C(C/C(CCN1CCCC1)=N\Nc1ccccc1)c1ccccc1 (stereo not given),> 100,> 100,> 100,> 100,,> 100,> 100,75.1,> 100,,,,,,,,,,,
COC(=O)c1nn(C(=N)c2ccc(Cl)cc2)c2c1CCC2,> 100,> 100,> 100,,> 100,> 100,> 100,92.3,> 100,,,,,,,,,,,
CCCCCn1c(C)cc(/C=C\c2ccc3cc(C)ccc3[n+]2C)c1C,,,,0.911,0.327,1.41,1.51,,0.853,,,,0.124,0.0793,0.0769,0.329,1.71,0.313,0.123,
OCCN1CCN(CC/C=C2/c3ccccc3Sc3ccc(Cl)cc32)CC1,24.6,26,28.1,27.9,26.8,30.9,34.9,34.3,29.3,,,,,,,,,,,
C[C@]12CCC(=O)C=C1CC[C@@H]1C2CC[C@]2(C)c3nn(-c4ccccc4)nc3CC12 (stereo not given in full),> 100,> 100,> 100,> 100,> 100,> 100,> 100,,> 100,,,,,,,,,,,
CC(=O)[CH-]C(=O)c1ccccc1.CC(=O)[CH-]C(=O)c1ccccc1.CC[O-].O=C1c2ccccc2C(=O)c2c1ccc(O)c2[O-].[Ti+4],> 100,> 100,83.5,> 100,61.2,> 100,> 100,,> 100,,,,52.5,,,,,,,
CN(C)CC/C(=N\Nc1ccc(Cl)cc1Cl)c1ccccc1,29.5,25.1,30.1,27,42,30.7,30,32.3,24.8,,,,,,,,,,,
CCCCCCCCCCC(C)CCCCCCC(=O)O (stereo not given),> 100,> 100,> 100,> 100,> 100,> 100,> 100,> 100,> 100,,,,,,,,,,,
C/C=N\N1C(=O)c2ccccc2C1=O,> 100,> 100,> 100,> 100,> 100,> 100,> 100,> 100,,,,,,,,,,,,
CCN(CC)CCNC(=O)c1cccc2nc3ccccc3nc12,> 47.1,> 100,30.9,> 50,37.3,41.6,> 100,,> 100,,,,,,,,,,,
O=C(O)c1cc2ccccc2c2c1C(=O)c1ccccc1-2,> 100,> 100,,> 100,> 100,> 100,> 100,> 100,> 100,,,,,,,,> 100,,,
N.N.O=P([O-])([O-])C1(P(=O)([O-])[O-])CCCCCN1.[Pt+2],> 100,> 100,> 100,> 100,> 100,,> 100,,> 100,> 100,> 100,,> 100,> 100,> 100,,,,> 100,> 100
O=C(O)/C(=C\c1ccncc1)c1cccc2ccccc12,> 100,> 100,,> 100,> 100,> 100,> 100,> 100,> 100,,,,,,,,> 100,,,
NNC(=O)C(=O)N/N=C(\CCC(=O)Nc1ccc(Cl)cc1)Cc1nc2ccccc2s1,> 100,> 100,> 100,> 100,> 100,> 100,> 100,68.5,> 100,,,,,,,,,,,
